Tests used:
[1] = molecular target: T1, Cholecystokinin receptor type A (Homo sapiens, UniProt P32238); type: cell membranes, Membrane; conditions: 1321-n1
T1 sequence (P32238 whole entry): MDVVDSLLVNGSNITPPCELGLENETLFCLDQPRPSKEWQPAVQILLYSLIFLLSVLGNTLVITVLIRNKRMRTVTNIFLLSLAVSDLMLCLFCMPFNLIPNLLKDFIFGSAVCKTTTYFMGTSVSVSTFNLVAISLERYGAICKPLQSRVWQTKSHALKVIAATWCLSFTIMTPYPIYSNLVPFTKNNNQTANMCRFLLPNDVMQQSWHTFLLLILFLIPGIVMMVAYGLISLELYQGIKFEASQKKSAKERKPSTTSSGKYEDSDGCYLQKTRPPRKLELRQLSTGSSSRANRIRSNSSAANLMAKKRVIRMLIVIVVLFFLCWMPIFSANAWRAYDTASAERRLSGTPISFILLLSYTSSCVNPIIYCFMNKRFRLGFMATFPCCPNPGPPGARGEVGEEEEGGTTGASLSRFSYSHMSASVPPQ

[2] = molecular target: C-C chemokine receptor type 2 (Homo sapiens, UniProt P41597); type: cell membranes, Membrane; conditions: cho-k1
Insulin receptor = Insulin receptor (Rattus norvegicus, UniProt P15127); type: cell membranes, Wistar, Liver, Membrane
[3] = molecular target: Mitogen-activated protein kinase 14 (Homo sapiens, UniProt Q16539); design: species or system Escherichia coli;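 also: inhibition of p38alpha enzyme activity in a biochemical kinase assay, with myelin basic protein serving as substrate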
[4] = molecular target: 5-hydroxytryptamine receptor 6 (Homo sapiens, UniProt P50406); type: cell membranes, HeLa, Membrane; conditions: hela
[5] = molecular target: Prostaglandin G/H synthase 1 (Homo sapiens, UniProt P23219); test: biochemical; type: tissue-based, Platelet; conditions: platelet;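 also: inhibition of COX-1 enzyme activity, with arachidonic acid supplied as substrate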
Neutrophil elastase = molecular target: T2, Neutrophil elastase (Homo sapiens, UniProt P08246); type: tissue-based;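 also: inhibition of neutrophil elastase enzyme activity, measured with a p-nitroanilide-linked peptide substrate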
T2 sequence (P08246 whole entry): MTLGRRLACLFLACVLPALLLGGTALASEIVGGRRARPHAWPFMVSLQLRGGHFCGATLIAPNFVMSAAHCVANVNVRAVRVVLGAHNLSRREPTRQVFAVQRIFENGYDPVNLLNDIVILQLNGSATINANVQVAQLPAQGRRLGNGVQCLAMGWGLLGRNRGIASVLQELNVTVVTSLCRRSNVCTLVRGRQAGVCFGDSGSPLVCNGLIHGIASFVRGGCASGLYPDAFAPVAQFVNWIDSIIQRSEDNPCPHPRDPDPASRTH

Measured: IC50
Also: in other assays of this panel Not Active means under 50% inhibition at 10 µM.

Chain of Mitogen-activated protein kinase 14 (Q16539 whole entry): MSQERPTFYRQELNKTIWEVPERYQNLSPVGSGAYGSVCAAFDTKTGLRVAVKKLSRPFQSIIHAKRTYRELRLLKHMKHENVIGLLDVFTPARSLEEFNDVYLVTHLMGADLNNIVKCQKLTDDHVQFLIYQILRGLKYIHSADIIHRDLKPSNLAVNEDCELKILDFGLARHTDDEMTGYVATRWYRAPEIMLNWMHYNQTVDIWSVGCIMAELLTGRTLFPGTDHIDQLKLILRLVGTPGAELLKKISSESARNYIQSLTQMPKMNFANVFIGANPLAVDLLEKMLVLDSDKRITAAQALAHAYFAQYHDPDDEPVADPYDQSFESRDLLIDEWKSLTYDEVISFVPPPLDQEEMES
Chain of 5-hydroxytryptamine receptor 6 (P50406 whole entry): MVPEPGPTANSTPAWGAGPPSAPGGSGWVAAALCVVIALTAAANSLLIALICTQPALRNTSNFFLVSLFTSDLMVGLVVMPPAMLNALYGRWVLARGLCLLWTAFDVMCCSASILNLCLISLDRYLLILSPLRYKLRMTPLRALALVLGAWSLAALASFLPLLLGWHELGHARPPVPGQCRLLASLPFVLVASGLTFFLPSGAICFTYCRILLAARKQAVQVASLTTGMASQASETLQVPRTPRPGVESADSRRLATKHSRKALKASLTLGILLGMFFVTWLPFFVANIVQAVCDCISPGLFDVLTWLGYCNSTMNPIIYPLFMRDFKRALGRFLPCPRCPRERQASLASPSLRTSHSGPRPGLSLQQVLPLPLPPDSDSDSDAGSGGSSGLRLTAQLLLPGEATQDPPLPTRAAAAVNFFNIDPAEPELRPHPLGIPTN
Chain of Prostaglandin G/H synthase 1 (P23219 whole entry): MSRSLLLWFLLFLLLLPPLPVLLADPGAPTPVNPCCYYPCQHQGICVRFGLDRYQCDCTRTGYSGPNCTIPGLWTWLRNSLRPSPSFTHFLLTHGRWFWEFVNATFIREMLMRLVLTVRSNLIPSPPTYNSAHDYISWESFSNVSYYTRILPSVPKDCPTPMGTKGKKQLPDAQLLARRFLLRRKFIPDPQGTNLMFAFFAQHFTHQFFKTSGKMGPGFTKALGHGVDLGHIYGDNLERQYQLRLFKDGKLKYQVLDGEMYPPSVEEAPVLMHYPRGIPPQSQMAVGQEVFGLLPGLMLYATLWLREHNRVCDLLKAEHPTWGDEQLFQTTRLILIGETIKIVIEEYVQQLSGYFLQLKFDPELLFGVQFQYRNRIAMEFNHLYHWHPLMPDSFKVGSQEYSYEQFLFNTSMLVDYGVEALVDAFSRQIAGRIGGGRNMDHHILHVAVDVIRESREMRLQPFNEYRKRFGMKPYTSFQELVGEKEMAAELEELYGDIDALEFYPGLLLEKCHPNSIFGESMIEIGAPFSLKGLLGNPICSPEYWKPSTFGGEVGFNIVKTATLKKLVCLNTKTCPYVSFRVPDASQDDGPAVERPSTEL
Chain of Insulin receptor (P15127 27-759 limits assumed): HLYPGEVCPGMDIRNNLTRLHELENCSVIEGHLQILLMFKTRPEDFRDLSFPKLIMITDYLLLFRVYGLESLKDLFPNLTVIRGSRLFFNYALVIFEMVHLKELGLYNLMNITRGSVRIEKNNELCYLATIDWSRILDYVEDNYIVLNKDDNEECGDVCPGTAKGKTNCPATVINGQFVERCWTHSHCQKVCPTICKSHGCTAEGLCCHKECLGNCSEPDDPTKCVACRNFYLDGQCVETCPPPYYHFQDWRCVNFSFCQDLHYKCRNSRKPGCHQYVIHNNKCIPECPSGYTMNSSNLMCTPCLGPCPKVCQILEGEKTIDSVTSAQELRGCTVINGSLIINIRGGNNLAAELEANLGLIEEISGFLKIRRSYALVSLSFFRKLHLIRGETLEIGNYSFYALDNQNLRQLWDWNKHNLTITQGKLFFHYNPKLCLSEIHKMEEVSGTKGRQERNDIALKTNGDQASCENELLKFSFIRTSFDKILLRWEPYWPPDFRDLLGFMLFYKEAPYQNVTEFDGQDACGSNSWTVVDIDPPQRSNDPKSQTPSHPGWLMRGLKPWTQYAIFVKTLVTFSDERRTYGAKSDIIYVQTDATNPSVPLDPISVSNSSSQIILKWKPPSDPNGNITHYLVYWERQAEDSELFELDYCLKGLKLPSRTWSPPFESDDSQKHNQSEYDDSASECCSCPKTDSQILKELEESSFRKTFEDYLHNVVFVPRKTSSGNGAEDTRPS
Chain of Insulin receptor (P15127 764-1383 limits assumed): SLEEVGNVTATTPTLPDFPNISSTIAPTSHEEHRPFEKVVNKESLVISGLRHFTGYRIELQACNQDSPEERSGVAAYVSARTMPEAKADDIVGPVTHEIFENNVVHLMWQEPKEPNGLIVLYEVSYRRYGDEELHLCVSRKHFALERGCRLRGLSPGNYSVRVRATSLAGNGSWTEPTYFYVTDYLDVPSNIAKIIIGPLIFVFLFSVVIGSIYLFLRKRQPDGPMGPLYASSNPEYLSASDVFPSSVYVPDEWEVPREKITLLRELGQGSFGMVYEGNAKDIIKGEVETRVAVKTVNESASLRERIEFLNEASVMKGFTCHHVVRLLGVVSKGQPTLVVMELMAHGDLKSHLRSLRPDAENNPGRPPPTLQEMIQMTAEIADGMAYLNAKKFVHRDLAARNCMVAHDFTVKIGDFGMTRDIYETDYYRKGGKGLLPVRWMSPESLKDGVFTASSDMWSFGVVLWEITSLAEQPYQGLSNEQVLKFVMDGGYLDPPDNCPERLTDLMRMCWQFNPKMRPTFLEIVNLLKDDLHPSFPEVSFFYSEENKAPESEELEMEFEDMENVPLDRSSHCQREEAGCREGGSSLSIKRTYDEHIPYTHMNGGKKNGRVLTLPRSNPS
Chain of C-C chemokine receptor type 2 (P41597 whole entry): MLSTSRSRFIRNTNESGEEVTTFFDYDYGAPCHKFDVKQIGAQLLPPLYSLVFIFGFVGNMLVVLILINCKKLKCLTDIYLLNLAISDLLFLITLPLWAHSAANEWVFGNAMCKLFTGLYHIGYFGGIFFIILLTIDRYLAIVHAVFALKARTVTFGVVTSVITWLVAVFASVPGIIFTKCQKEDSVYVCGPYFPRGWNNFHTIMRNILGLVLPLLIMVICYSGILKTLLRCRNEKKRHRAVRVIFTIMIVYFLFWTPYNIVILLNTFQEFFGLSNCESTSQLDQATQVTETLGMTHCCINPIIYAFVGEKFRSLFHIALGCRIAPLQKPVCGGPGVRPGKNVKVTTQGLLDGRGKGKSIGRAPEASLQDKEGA

C#C[C@]1(O)CC[C@H]2[C@@H]3CCC4=CC(=O)CC[C@]4(C)[C@H]3CC[C@@]21C [ETHISTERONE]
Not Active: all assays above

CC(O)(P(=O)(O)O)P(=O)(O)O [ETIDRONIC ACID]
Not Active: all assays above

CC(=O)OCC(=O)[C@@]1(O)CC[C@H]2[C@@H]3CCC4=CC(=O)CC[C@]4(C)[C@@]3(F)[C@@H](O)C[C@@]21C [FLUDROCORTISONE ACETATE]
Not Active: all assays above

CCOC(=O)c1ncn2c1CN(C)C(=O)c1cc(F)ccc1-2 [FLUMAZENIL]
Not Active: all assays above

CC(=O)OCC(=O)[C@@]12OC(C)(C)O[C@@H]1C[C@H]1[C@@H]3C[C@H](F)C4=CC(=O)C=C[C@]4(C)[C@@]3(F)[C@@H](O)C[C@@]12C [FLUOCINONIDE]
Not Active: all assays above

Cc1ccc(C)c(OCCCC(C)(C)C(=O)O)c1 [GEMFIBROZIL]
Not Active: all assays above

CCCCC1=NC2(CCCC2)C(=O)N1Cc1ccc(-c2ccccc2-c2nnn[nH]2)cc1 [IRBESARTAN]
Not Active: all assays above

C[C@H]1COc2c(N3CCN(C)CC3)c(F)cc3c(=O)c(C(=O)O)cn1c23.C[C@H]1COc2c(N3CCN(C)CC3)c(F)cc3c(=O)c(C(=O)O)cn1c23.O [LEVOFLOXACIN]
Not Active: all assays above

CS(=O)(=O)Nc1ccc([N+](=O)[O-])cc1Oc1ccccc1 [NIMESULIDE]
not listed: [5]
Not Active: all other assays above

NC(=O)N1c2ccccc2CC(=O)c2ccccc21 [OXCARBAZEPINE]
Not Active: all assays above

CCN(CC)CCNC(=O)c1ccc(N)cc1 [PROCAINAMIDE]
Not Active: all assays above

C[C@]12C=CC(=O)C=C1CC[C@H]1[C@@H]3C[C@@H](O)[C@](O)(C(=O)CO)[C@@]3(C)C[C@H](O)[C@@]12F [TRIAMCINOLONE]
Not Active: all assays above

CCN(C(C)=O)c1cccc(-c2ccnc3c(C#N)cnn23)c1 [ZALEPLON]
Not Active: all assays above
